# Literature values as cited in patent publication US10308937B2, “Combination long acting compositions and methods for Hepatitis C” (GlaxoSmithKline Intellectual Property (No. 2) Limited, priority 2014, dated 2019).
# Conditions: patients treated at currently recommended doses
smiles,measurement,value
NC(=O)c1ncn([C@@H]2O[C@H](CO)[C@@H](O)[C@H]2O)n1 [Ribavirin],patients with significant hemolysis,10-20 % of patients
